# From the NIST ThermoML archive (doi:10.1016/j.jct.2012.09.017)
# Numbers after ± are expanded uncertainties.
# Assay: activity coefficient (dimensionless); of the first substance listed, at infinite dilution; xn = mol fraction of the nth substance listed
# Conditions: 101 kPa, Liquid, Chromatography, x1 = 0
SMILES,activity coefficient (333.15 K),activity coefficient (343.15 K),activity coefficient (353.15 K),activity coefficient (363.15 K),activity coefficient (373.15 K),activity coefficient (318.15 K),activity coefficient (323.15 K)
CCOC(C)=O [ethyl acetate] + CCCC[N+]1(C)CCCC1.O=C1O[B-]2(OC1=O)OC(=O)C(=O)O2,1.75 ± 0.09,1.74 ± 0.09,1.74 ± 0.09,1.73 ± 0.09,1.73 ± 0.09,–,–
CCc1ccccc1 [ethylbenzene] + CCCC[N+]1(C)CCCC1.N#C[B-](C#N)(C#N)C#N,1.68 ± 0.08,1.71 ± 0.09,1.73 ± 0.09,–,–,1.65 ± 0.08,1.66 ± 0.08
CCc1ccccc1 [ethylbenzene] + CCCC[N+]1(C)CCCC1.O=C1O[B-]2(OC1=O)OC(=O)C(=O)O2,3.97 ± 0.2,3.85 ± 0.2,3.74 ± 0.19,3.65 ± 0.19,3.56 ± 0.18,–,–
CCC1CCCCC1 [ethylcyclohexane] + CCCC[N+]1(C)CCCC1.N#C[B-](C#N)(C#N)C#N,15.8 ± 0.8,14.8 ± 0.8,13.9 ± 0.7,–,–,17.6 ± 0.9,17 ± 0.9
CCC1CCCCC1 [ethylcyclohexane] + CCCC[N+]1(C)CCCC1.O=C1O[B-]2(OC1=O)OC(=O)C(=O)O2,41.8 ± 2.2,36.9 ± 1.9,33 ± 1.7,29.7 ± 1.5,27 ± 1.4,–,–
CCCCCCC [heptane] + CCCC[N+]1(C)CCCC1.N#C[B-](C#N)(C#N)C#N,20.9 ± 1.1,19.7 ± 1,18.5 ± 1,–,–,23.2 ± 1.2,22.4 ± 1.2
CCCCCCC [heptane] + CCCC[N+]1(C)CCCC1.O=C1O[B-]2(OC1=O)OC(=O)C(=O)O2,62.9 ± 3.3,55.4 ± 2.9,49.5 ± 2.6,44.7 ± 2.3,40.8 ± 2.1,–,–
CO [methanol] + CCCC[N+]1(C)CCCC1.N#C[B-](C#N)(C#N)C#N,0.931 ± 0.042,0.878 ± 0.04,0.831 ± 0.039,–,–,1.03 ± 0.05,0.992 ± 0.043
CO [methanol] + CCCC[N+]1(C)CCCC1.O=C1O[B-]2(OC1=O)OC(=O)C(=O)O2,1.27 ± 0.06,1.19 ± 0.05,1.11 ± 0.05,1.05 ± 0.05,0.99 ± 0.043,–,–
COC(C)=O [methyl ethanoate] + CCCC[N+]1(C)CCCC1.N#C[B-](C#N)(C#N)C#N,0.693 ± 0.035,0.708 ± 0.035,0.724 ± 0.036,–,–,0.671 ± 0.034,0.678 ± 0.034
COC(C)=O [methyl ethanoate] + CCCC[N+]1(C)CCCC1.O=C1O[B-]2(OC1=O)OC(=O)C(=O)O2,1.03 ± 0.05,1.04 ± 0.05,1.06 ± 0.05,1.08 ± 0.05,1.09 ± 0.05,–,–
CC1CCCCC1 [methylcyclohexane] + CCCC[N+]1(C)CCCC1.N#C[B-](C#N)(C#N)C#N,11.2 ± 0.6,10.6 ± 0.5,10.1 ± 0.5,–,–,12.2 ± 0.6,11.8 ± 0.6
CC1CCCCC1 [methylcyclohexane] + CCCC[N+]1(C)CCCC1.O=C1O[B-]2(OC1=O)OC(=O)C(=O)O2,30 ± 1.6,26.5 ± 1.4,24 ± 1.2,21.6 ± 1.1,19.9 ± 1,–,–
C[N+](=O)[O-] [nitromethane] + CCCC[N+]1(C)CCCC1.N#C[B-](C#N)(C#N)C#N,0.429 ± 0.029,0.431 ± 0.029,0.433 ± 0.029,–,–,0.427 ± 0.029,0.427 ± 0.029
C[N+](=O)[O-] [nitromethane] + CCCC[N+]1(C)CCCC1.O=C1O[B-]2(OC1=O)OC(=O)C(=O)O2,0.416 ± 0.029,0.423 ± 0.029,0.43 ± 0.029,0.436 ± 0.029,0.441 ± 0.029,–,–
